The assay has as its system plaque biofilm grown from fresh pooled human saliva. Put plainly: in vitro plaque glycolysis model (iPGRM): acid production and acid inhibition. The format is cell-based, plaque microorganisms from human saliva. The settings on record: TABLE 2, 3-day biofilm. The method, then: Acid production and acid inhibition were determined with the in vitro plaque glycolysis model (iPGRM). The purpose of this technique is to provide a simple and quick method for determining if compounds have an influence on the metabolic pathways that plaque microorganisms utilize to produce toxins that adversely affect gingival health. It is also useful to determine if compounds have an influence on the metabolic pathways that plaque microorganisms utilize to produce plaque acids that adversely affect teeth.
The in vitro plaque glycolysis model (iPGRM) is a technique in which plaque is grown from human saliva and treated with various agents to determine anti-glycolytic activity of treatments. When bacteria convert sugar into energy with the help of enzymes, acids are formed. These acids demineralize and damage the dental enamel. […]
[…] The pH of the media solutions was then measured to determine the amount of glycolysis inhibition relative to a negative control.
On Day 1, new glass rods (5 mm×90 mm) were polished approximately 25 mm from the un-tapered end on a lathe with silicon carbide paper of 240, 320, 400, and 600 grit used sequentially. […] After polishing, rods were stored until ready to run test. […]

On to `[H]/N=C(\N/C(=N/[H])NCCCCCCNC(=N)NC(=N)Nc1ccc(Cl)cc1)Nc1ccc(Cl)cc1` [1% Chlorhexidine, Chlorhexidine], for which the “Acid Production (ΔpH) Mean” value (2 min treatment with dentifrice slurry or diluted treatment in water (1:5), ΔpH vs blank vials) is 0.30 ΔpH. Besides, the “Mean Acid Inhibition (%) Mean” value (relative to negative control Crest Cavity Protection) was determined as 80.77%.

Source of the values: patent US20220313595A1, “Oral Care Compositions Comprising Hops” (The Procter & Gamble Company, priority 2021, published 2022).
